Measurements taken from patent publication EP1136472A1, “ARYL- AND HETEROARYLAMIDES OF CARBOALKOXYSULFANILIC ACIDS” (priority 1998, dated 2000).
In brackets after ≈: the same amount, converted by molar mass. Read-outs that look alike come from different tables or passages of the source.

Key:
[1] = system: Mycobacterium tuberculosis H37RV; assay: Antimicrobial action, serial dilution method; format: cell-based; conditions: 72-hour cultivation at 37°C
C.trachomatis D323 = assay: Antichlamydial activity in infected cell culture (McCoy and L929); format: cell-based, Chlamydia trachomatis; conditions: 100 mg/l; for percentage of cell protection from infection / Number of unchanged cells: 48 hours; for Number of unchanged cells: counted in 100 visual fields
Protocol: The antichlamydial activity of the claimed compounds was studied in respect to C.trachomatis […], which is a standard strain contained in the collection of the department of microbiology of St. Petersburg State Pavlov Medical University. […] Cell cultures McCoy and L929 obtained from the Institute of Cytology of RAS were used in this work. Cells were grown in flasks made of neutral glass in the medium RPMI-1640 containing 10% of fetal calf serum. The test was performed in flat-bottom flasks made of glass (non-toxic), that were supplied with cover glasses. The cells were introduced into the medium in the final concentration of 1x10^6 cell/ml. […] Simultaneously, tested compounds in a final concentration of 100 mg/l were added to the cells. The sample was centrifuged at 2400 G for 60 minutes at a room temperature and incubated at 37°C for 2 hours. […] The samples were doubled using the medium without cycloheximide so as to exclude its effect on the investigated compounds. The samples were incubated for 48 hours in CO2-incubator. The controls included: • 1. Control of cell culture • 2. Control of action of solvents • 3. Control of action of chlamydia in absence of any compounds • 4. […] Control of the tested compounds as to toxicity in respect to the cell culture. Evaluation of the results was carried out by the way of determination of chlamydial cytoplasmatic inclusions (CPI) that was conducted by the method of immunofluorescence (MicroTrack Chlamydia trachomatis Direct Specimen Test), and by the way of determination of chlamydia antigens that was conducted by means of CylaMonoScreen (Russian-British Joint Venture 66 Regent's Parc Road London NW1 7SX). The effect of the action of compound was determined by analysis of the monolayer state and number of cells with CPI when compared with the control (cell culture infected with C.trachomatis […]); in doing so, the number of unchanged cells, that were counted in 100 visual fields obtained using the eyepiece-micrometer, was taken into consideration.

[2] = system: Herpes Simplex virus of the type I (HSV-I /Leningrad/248/88); assay: Antiviral effect on Herpes Simplex virus (cytopathogenic action on Vero cells); format: cell-based; conditions: compound concentration of 100 µg/ml; for Quantity of the unchanged cells: number of cells in 100 visual fields, after 36 hours; for percentage of protection: protection of cells from virus as compared to the control of cell culture
[3] = system: primary culture of human lymphocytes; assay: Interferon-inducing activity in primary culture of human lymphocytes (IFN-α immunoenzyme test); format: cell-based
Protocol: Interferon synthesis induction caused by the claimed compounds was conducted on a primary culture of human lymphocytes (it is these cells in a human organism that are the main producers of interferons). To obtain lymphocyte culture, fresh blood (within 12 hours after sampling) from healthy donors (not of group II) was used. To separate lymphocytes, heparinized blood obtained from healthy donor was centrifuged in a density gradient ficoll-verografin of […] in order to extract a fraction of immunocompetent cells. This fraction was selected and diluted with the nutrient medium RPMI-1640, containing 5% of fetal calf serum, 0.3 mg/ml of L-glutamin, 100 un/ml of penicillin, and 50 µg/ml of streptomycin. The concentration of lymphocytes was considered after dying them with methylene blue and calculation of cell number in a chamber of a hemocytometer. Initial solutions of the claimed compounds were diluted with the nutrient medium RPMI-1640 so that the final concentrations of the compounds, which were obtained after introduction of lymphocyte suspension, constituted the raw: 100 µg/ml, 10 µg/ml, 1 µg/ml. The final concentration of lymphocytes in the induction mixture was 3x10^6 cell/ml.
Control and test samples were incubated for 24 hours at the temperature of 37°C. After incubation, the samples were centrifuged at 2,000 G to deposit cell elements, and IFN-containing supernatant was separate out of the samples; then the supernatant was analyzed for the quantitative content of IFN. Cell deposition was resuspended in the preceding volume of nutrient medium, colored with vital dye trypan blue, and cell number was counted in a chamber of a hemocytometer (as described above) to determine cytotoxic action of the compounds.
Quantitative determination of the content of IFN in control and test samples was conducted using the immunoenzyme test system Pro Con IF2 Plus, that is intended for determination of IFN-α, which is produced by TOO "Protein contour". The solid-phase immunoenzyme method, utilizing horse radish peroxidase as an indicator enzyme, was used to determine the quantity of interferon in the samples. Activity of the bonded peroxidase was measured using an automatic photometer for microplates with a microprocessor at the wavelength of 450 nm.
Based on the obtained results, a calibrating curve was formed, which allows to obtain data expressed in international units (IU) of activity, using the microprocessor of the automatic photometer. The results of the analysis are expressed in IU of activity of IFN per ml in the given induction system, which contains 3x10^6 lymphocyte/ml. Each test and control point was investigated in four parallels.
Controls of immunoenzyme reaction: • 1. Control of DMSO with a nutrient medium. • 2. Control of system components (according to an instruction).
The obtained data were undergone a statistical analysis using t-criterion, and calculation of the confident interval of probability at p=0.05 was carried out. Coincidence between the results obtained in the parallel tests was analyzed.

[4] = system: Human's platelet aggregation; assay: Antiaggregational properties, ADP-induced platelet aggregation in platelet-rich plasma; format: cell-based; conditions: adenosine diphosphate 2.5 µmol/l
Protocol: Human's platelet aggregation was investigated in plasma of healthy 50±3 years donors that was enriched by thrombocytes, by means of aggregometer FRM-1. The substance under investigation was added to blood plasma samples (100 µg/ml) before inducing aggregation by means of adenosine diphosphate (2.5 µmol/l). Magnitude of the maximum non-reversible platelet aggregation in the control samples (solvent) was adopted as 100%, and that in tested samples was counted as percentage compared to the control. Inhibition of the aggregation by more than 50% at the given concentration was evaluated as meaningful inhibition. Adenosine (5 µg/ml) and aspirin (9 µg/ml), that inhibit aggregation at these concentrations by 100%, were utilized as reference agents.

[5] = format: in vivo; conditions: mice, observed 72 hours, 300 was the maximally utilized
Protocol: Tested substance was introduced perorally (in dose of 300 mg/kg) through a gastric tube or intraperitoneally (in dose of 100 mg/kg) to no-breed white mice with mass 18-20 g (each tested group consisted of 3 males and 3 females). Then the mouse state was observed during 72 hours. Absence of symptoms characteristic of toxic effects, or absence of animal death during the given time allows to make a conclusion that the toxicity of the tested substance is low.

[6] = system: alanine-aminotranspherase (AlAT); assay: Hepatoprotective activity, CCl4 liver damage in rats; format: in vivo
Protocol: CCl4 dissolved in 50% olive oil (1 ml/kg) was subcutaneously administrated to rats. Test substances were administrated perorally in a dose of 20 mg/kg 30 minutes before and 7 hours after the CCL4 administration. The activity of alanine-aminotranspherase (AlAT), which is a marker enzyme of liver parenchyma damage, was assessed twenty-four hours later. Reducing of enzyme amount by more than 30% relative to the control group was considered as evidence of hepatoprotective properties of the substance. Vitamin E in a dose of 100 mg/kg was used as a reference agent.

[7] = Mycobacterium tuberculosis, H37RV, read-out: MIC

Row | Molecule | Quantity of the unchanged cells [2] | percentage of protection [2] | Content of IFN in induction mixture after 24-hour incubation ([3]; 1 mg/l) | Content of IFN in induction mixture after 24-hour incubation ([3]; 10 mg/l) | Content of IFN in induction mixture after 24-hour incubation ([3]; 100 mg/l) | also measured
1 | CC1COc2c(N3CCN(C)CC3)c(F)cc3c(=O)c(C(=O)O)cn1c23 (stereo not drawn) [Ofloxacin] |  |  |  |  |  | MIC [1, 7]: 0.5 µg/mL (≈ 1.38 µM)
2 | CCCCOC(=O)Nc1ccc(S(=O)(=O)Nc2cccc(Br)c2)cc1 [XII, Carbobutoxysulfanylic acid (3-bromophenyl)amide] | 5000 | 50% | 1,3 ± 0,2 IU/3x10^4 lymph./ml | 2 ± 0,5 IU/3x10^4 lymph./ml | 2,5 ± 0,6 IU/3x10^4 lymph./ml | percentage of cell protection from infection (C.trachomatis D323): 45%; Number of unchanged cells (C.trachomatis D323): 3.600
3 | NNC(=O)c1ccncc1 [Isoniazid] |  |  |  |  |  | MIC [1, 7]: 0.1 µg/mL (≈ 0.729 µM)
4 | CCCCOC(=O)Nc1ccc(S(=O)(=O)Nc2c(Cl)cccc2Cl)cc1 [X, Carbobutoxysulfanylic acid (2,6-dichlorophenyl)amide] | 7000 | 70% | 7 ± 1 IU/3x10^4 lymph./ml | 26 ± 1 IU/3x10^4 lymph./ml | 100 ± 3 IU/3x10^4 lymph./ml | percentage of cell protection from infection (C.trachomatis D323): 50%; Number of unchanged cells (C.trachomatis D323): 4.000
5 | CCCCCOC(=O)Nc1ccc(S(=O)(=O)Nc2c(C)n(C)n(-c3ccccc3)c2=O)cc1 [XLI, Carbopentoxysulfanylic acid (1,5-dimethyl-2-phenylpyrazolone-4-yl)-amide] | 7500 | 75% | 5 ± 0.4 IU/3x10^4 lymph./ml | 18.7 ± 0.2 IU/3x10^4 lymph./ml | 69 ± 1 IU/3x10^4 lymph./ml | activity against chlamydia (in words) (C.trachomatis D323): marked biological activity against chlamydia; percentage of cell protection from infection (C.trachomatis D323): 55%; Number of unchanged cells (C.trachomatis D323): 4.400
6 | Rifampycin |  |  |  |  |  | MIC [1]: 0.05 µg/mL
7 | CC(=O)Oc1ccccc1C(=O)O [Aspirin, aspirin] |  |  |  |  |  | inhibition at 9 µg/mL ([4]; Homo sapiens, Platelet, 9 µg/ml): 100%
8 | CC[C@@H](CO)NCCN[C@@H](CC)CO [Ethambutol] |  |  |  |  |  | MIC [1, 7]: 5 µg/mL (≈ 24.5 µM)
9 | CCCCOC(=O)Nc1ccc(S(=O)(=O)Nc2ccc([N+](=O)[O-])cc2)cc1 [VII, Carbobutoxysulfanylic acid (4-nitrophenyl)amide] | 8000 | 80% |  |  |  | Maximal tolerable dose: Concentration of tested compounds at oral introducing [5]: 300 mg/L
10 | Nc1ncnc2c1ncn2[C@@H]1O[C@H](CO)[C@@H](O)[C@H]1O [Adenosine] |  |  |  |  |  | inhibition at 5 µg/mL ([4]; Homo sapiens, Platelet, 5 µg/ml): 100%
11 | Vitamin E [reference compound] |  |  |  |  |  | % of reducing AlAT ([6]; Vitamin E in a dose of 100 mg/kg, reference agent): -30%
12 | CCCCCCOC(=O)Nc1ccc(S(=O)(=O)Nc2ccccc2C)cc1 [XXIX, Carbohexoxysulfanylic acid (2-toluyl)amide] | 6000 | 60% |  |  |  | % of inhibition ([4]; 100 µg/ml): 33.3±8.2%; % of reducing AlAT ([6]; perorally 20 mg/kg 30 minutes before and 7 hours after CCl4, AlAT twenty-four hours later, relative to the control group): -36%; activity against chlamydia (in words) (C.trachomatis D323): marked biological activity against chlamydia; percentage of cell protection from infection (C.trachomatis D323): 55%; Number of unchanged cells (C.trachomatis D323): 4.400
13 | CCCCCCOC(=O)Nc1ccc(S(=O)(=O)Nc2ccc(Br)cc2)cc1 [V, Carbohexoxysulfanylic acid (4-bromophenyl)amide] | 5000 | 50% | 1,1 ± 0,1 IU/3x10^4 lymph./ml | 1,4 ± 0,1 IU/3x10^4 lymph./ml | 2 ± 0,3 IU/3x10^4 lymph./ml | 
14 | CCCCOC(=O)Nc1ccc(S(=O)(=O)Nc2cc(C)ccc2C)cc1 [XIV, Carbobutoxysulfanylic acid (2,5-dimethyl)amide] | 7000 | 70% | 1,2 ± 0,1 IU/3x10^4 lymph./ml | 1,8 ± 0,2 IU/3x10^4 lymph./ml | 2 ± 0,2 IU/3x10^4 lymph./ml | 
15 | [H]/N=C(/N)N[C@H]1[C@H](O)[C@@H](O)[C@H](O[C@@H]2O[C@@H](C)[C@](O)(C=O)[C@H]2O[C@@H]2O[C@@H](CO)[C@H](O)[C@@H](O)[C@@H]2NC)[C@@H](N/C(N)=N\[H])[C@@H]1O [Streptomycin] |  |  |  |  |  | MIC [1, 7]: 0.2 µg/mL (≈ 0.344 µM)
16 | Carboheptoxysulfanylic acid (1,2,4-thiadiazole-2-hexyl-5-yl)amide [XXXIV] |  |  |  |  |  | MIC [1]: 50 µg/mL
